# Test results: US20160039897A1, “COMPOUNDS AND METHODS FOR TREATING OBESITY AND CONTROLLING WEIGHT” (THE UNIVERSITY OF NORTH CAROLINA AT CHAPEL HILL, priority 2013, published 2016)
# Legend:
# IGFBP-2−/− mice [1] = experiment: Triglyceride content of right inguinal fat pad (colorimetric); assay type: in vivo, mouse; details: after 12 weeks; vs control peptide
# Protocol: Body fat and lean muscle mass was measured at weeks 0 and 12 of treatment by magnetic resonance imaging analysis (EchoMRI-100, Echo Medical Systems, Houston, Tex.), a technique that measures fat mass and lean mass in unanesthetized animals (Kelly S A, et. al., 2010). After completion of 12 weeks of treatment, the mice were sacrificed. Blood was collected by cardiac puncture and allowed to sit for 4 hours before centrifuging at 3500 rpm×15 min. The serum was aspirated and stored at −20° C. until analysis. Abdominal inguinal and visceral fat pads were carefully dissected from each animal according to defined anatomical landmarks. […] The right inguinal fat pad was dissected separately and the triglyceride content of this tissue was determined by a colorimetric analysis (Pointe Scientific, Canton, Mich.), as previously described (Dann H, Kimura S 1992). Serum adiponectin and leptin were measured by ELISA following manufacturer's instructions (Millipore, Billerica, Mass.).
# Body composition and serum adipokine measurement. Body fat and lean mass were measured at weeks 0 and 12 of treatment by magnetic resonance imaging analysis (EchoMRI-100, Echo Medical Systems, Houston, Tex.), using unanesthetized animals. […]
# IGFBP-2−/− mice [2] = experiment: Adipocyte area measurement in peri-gonadal adipose tissue; assay type: in vivo, mouse; details: after 12 weeks
# Protocol: Adipocyte area measurement. Samples of peri-gonadal adipose tissue were fixed in 10% formalin and embedded in paraffin. Multiple sections were obtained from each sample and stained with hematoxylin and eosin. Digital images of each section were acquired using an Olympus BX61 microscope and cell areas were traced manually for at least 200 cells per section by an investigator blinded to the sample identity, using Image J software (1ASS). Four sections from each adipose depot were analyzed to derive the mean cell area per mouse 6 mice per group).
# [3] = test system: primary preadipocytes from IGFBP-2−/− mice; experiment: Differentiation of primary preadipocytes (immunoblot of adiponectin, aP2, PPARγ; Oil Red O staining); assay type: cell-based, mouse; details: for % suppression of adiponectin / reduction of PPARγ expression / reduction of aP2 expression / reduction of adiponectin expression: mean±SE; for % suppression of adiponectin: N=3; for relative potency as inhibitor of adipogenesis / preadipocyte differentiation (in words): comparison between peptides and proteins, immunoblot and Oil Red O; for reduction of PPARγ expression / reduction of aP2 expression / reduction of adiponectin expression: peptide 6 μg/ml in differentiation medium vs differentiation medium only, immunoblot relative to β-actin
# Protocol: Primary preadipocytes were isolated from epididymal fat pads of 6 week old IGFBP-2^−/− mice. The cells were cultured using a previously described method (Boney, C M et al., 1994). The fat pads were weighed and the tissue was digested with an equal volume (W/V) of collagenase type A (Roche Applied Science, Indianapolis, Ind.) in HEPES buffer (0.1M and 1.5% BSA) for 45 min at 37° C. Following complete digestion, the preadipocytes were separated from the stromal vascular cells by centrifugation at 500×g for 5 min. The pelleted cells were washed with DMEM containing 30 mM glucose (Gibco, Grand Island, N.Y.) and passed through a 100 μm mesh filter (BD Biosciences, Bedford, Mass.). The cells were then plated in 6-well plates (Falcon Corp., Franklin Lakes, N.J.) at a density of 1.2-1.5×10^4 cells/ml in DMEM containing 30 mM glucose supplemented with penicillin (100 U/ml), streptomycin (100 μg/ml), and 10% fetal bovine serum hereafter referred to as standard medium. The cultures had the medium changed every 2 days until they reached confluency. Two day post-confluent cells were then exposed to differentiation medium (serum free DMEM containing 0.5 mM IBMX, 1 μM dexamethasone, and 5 μg/mL insulin) and incubated for 2 days. Experimental treatments that were added to this medium included either wild type IGFBP-2 (3 μg/ml), HBD1 peptide (6 μg/ml), HBD1 control peptide (6 μg/ml), HBD2 peptide (6 μg/ml), HBD2 control peptide (6 μg/ml), HBD1 mutant IGFBP-2 (3 μg/ml) or the HBD2 mutant IGFBP-2 (3 μg/ml). Cultures were maintained for two additional days in the standard medium supplemented with 5 μg/ml insulin. Thereafter, the cultures were kept in the fresh standard medium without insulin for additional two days.
# After treatment, the cells were rinsed with PBS for two times and fixed with 10% formalin for 30 min at room temperature. After rinsing with distilled water for twice, 100% propylene glycol (Poly Scientific, Bay Shore, N.Y.) was added and incubated for 5 min. Before adding Oil Red O solution (Poly Scientific, Bay Shore, N.Y.), propylene glycol was removed. The cultures were incubated for 10 min at 60° C. Removing Oil Red O solution, the cultures were incubated with 80% propylene glycol for 5 min, After incubation, the cultures were rinsed with tap water twice. Images were captured using an Olympus IX81 inverted microscope.
# Differentiated adipocytes were lysed in ice-cold lysis buffer (Xi et al., 2008). After centrifugation at 14,000×g for 10 min, solubilized proteins were quantified by the Bradford method (Thermo Scientific, Rockford, Ill.). Equal protein amounts of lysates were loaded onto a SDS-polyacrylamide gel and the proteins were separated, then transferred to an Immobilon filter and visualized by immunoblotting using the appropriate antibody. The primary antibody dilutions that were used were 1:1000 for the anti-adiponectin antibody (Affinity BioReagents, Golden, Colo.), 1:500 for the anti-PPARγ antibody (Cell Signaling Technology Inc., Beverly, Mass.), 1:2000 for the anti-apt antibody (ProSci Inc., Poway, Calif.) and 1:5000 for the anti-β-actin antibody (Sigma Chemical Company, St. Louis, Mo.). The immune complexes were visualized using enhanced chemiluminescence (Thermo Fischer Scientific, Rockford, Ill.).
# Preadipocytes were prepared from mice and grown in culture as described herein. The respective mouse and human peptides were added to cells and the cells were lysed and the lysates were run on SDS gels as described. Immunoblotting for adiponectin was carried as described. Three concentrations of each peptide, 0.7, 2.0 and 6.0 μg/ml, were compared. The results were expressed as % suppression mean±SE(N=3) and were as follows.
# Cell culture of primary preadipocytes. Preadipocytes were isolated from epididymal fat pads of IGFBP-2^−/− mice. The cultures had the medium changed every 2 days until they reached confluency. […]
# IGFBP-2−/− mice [4] = experiment: Body composition (fat and lean mass) by EchoMRI at weeks 0 and 12; assay type: in vivo, mouse
# Protocol: (§1) Body fat and lean muscle mass was measured at weeks 0 and 12 of treatment by magnetic resonance imaging analysis (EchoMRI-100, Echo Medical Systems, Houston, Tex.), a technique that measures fat mass and lean mass in unanesthetized animals (Kelly S A, et. al., 2010). After completion of 12 weeks of treatment, the mice were sacrificed. Blood was collected by cardiac puncture and allowed to sit for 4 hours before centrifuging at 3500 rpm×15 min. The serum was aspirated and stored at −20° C. until analysis. Abdominal inguinal and visceral fat pads were carefully dissected from each animal according to defined anatomical landmarks. All subcutaneous fat between the lower part of the rib cage and the upper thigh was considered abdominal subcutaneous inguinal fat, whereas all fat found along the mesentery starting at the lesser curvature of the stomach and ending at the sigmoid colon was considered visceral fat. Fat depots were blotted dry prior to weighing. The right inguinal fat pad was dissected separately and the triglyceride content of this tissue was determined by a colorimetric analysis (Pointe Scientific, Canton, Mich.), as previously described (Dann H, Kimura S 1992). Serum adiponectin and leptin were measured by ELISA following manufacturer's instructions (Millipore, Billerica, Mass.).
# (§2) Body composition and serum adipokine measurement. Body fat and lean mass were measured at weeks 0 and 12 of treatment by magnetic resonance imaging analysis (EchoMRI-100, Echo Medical Systems, Houston, Tex.), using unanesthetized animals. After 12 weeks of treatment, the mice were sacrificed and blood was collected by cardiac puncture and centrifuged at 3500 rpm×15 min. The serum was stored at −20° C. Abdominal inguinal and visceral fat pads were dissected from each animal according to defined anatomical landmarks. Subcutaneous fat between the rib cage and the upper thigh was termed subcutaneous inguinal fat, whereas all fat from the lesser curvature of the stomach to the sigmoid colon was termed visceral fat. Fat depots were blotted dry prior to weighing. The right inguinal fat pad was dissected separately and the triglyceride content of this tissue was determined by a calorimetric analysis (Pointe Scientific, Canton, Mich. Serum adiponectin and leptin were measured by ELISA following manufacturer's instructions (Millipore, Billerica, Mass.).
# IGFBP-2−/− mice [5] = experiment: Serum adiponectin and leptin by ELISA; assay type: in vivo, mouse; details: after 12 weeks
# Protocol: as §1, §2
# [6] = weeks 0 to 12, pegylated peptide 50 μg IP 3 times/week
# [7] = weeks 0 to 12, pegylated peptide 50 μg IP 3 times/week, mean±SE
Sequence,reduction of triglyceride content in the inguinal fat pad (IGFBP-2−/− mice [1]),adipocyte size (IGFBP-2−/− mice [2]),% suppression of adiponectin ([3]; 0.7 μg/ml peptide),% suppression of adiponectin ([3]; 2.0 μg/ml peptide),% suppression of adiponectin ([3]; 6.0 μg/ml peptide),potency in inhibiting preadipocyte differentiation relative to the HBD1 peptide ([3]; HBD2 peptide vs HBD1 peptide),relative potency as inhibitor of adipogenesis / preadipocyte differentiation (in words) [3],relative potency as inhibitor of adipogenesis / preadipocyte differentiation (in words) ([3]; listed as human peptide),reduction of PPARγ expression [3],reduction of aP2 expression [3],reduction of adiponectin expression [3],"reduction in body fat mass gain (fat as percentage of body weight) compared to control peptide (IGFBP-2−/− mice [4]; 12 weeks, pegylated peptide 50 μg IP 3 times/week)",lean mass change expressed as percentage of body weight (relative reduction) (IGFBP-2−/− mice [4]; [6]),Fat mass increase (IGFBP-2−/− mice [4]; [7]),Lean mass increase (IGFBP-2−/− mice [4]; [7]),increase of serum leptin level compared to control peptide treated mice (IGFBP-2−/− mice [5]),serum adiponectin level lower than in control peptide treated mice (IGFBP-2−/− mice [5]),serum adiponectin level reduction compared to HBD1 peptide treated mice (IGFBP-2−/− mice [5]),relative potency as inhibitor of adipogenesis / preadipocyte differentiation (in words) ([3]; listed as mouse HBD1 peptide),inhibition of fat mass acquisition (IGFBP-2−/− mice [4]; 12 weeks)
KHGLYNLKQCKMSLNGQR [HBD2 peptide],37±9%,11967±716 pixels/cell,49.4 ± 10%,87.9 ± 6.2%,96.9 ± 7.0%,1.8 fold,most potent inhibitors of adipogenesis,equipotent,67±7%,completely inhibited,completely inhibited,48±9%,2.1±0.8%,0.58 ± 0.12 g,3.10 ± 0.57 g,57±9%,36±4%,24±5%,,
KHLSLEEPKKLRP [HBD1 peptide],22±2%,12406±748 pixels/cell,,,,,less activity,,47±9%,51±2%,66±10%,,4.1±1.1%,,,had no effect,,,equivalent in inhibiting preadipocyte differentiation,31%
